Laboratory results: ChEMBL document CHEMBL5543154, “Structural Elucidation and Antiviral Activity of Covalent Cathepsin L Inhibitors” (J Med Chem, 2024)

What was measured:
[1] = target: Procathepsin L (Homo sapiens) (UniProt P07711); test: Binding affinity to Cathepsin L (unknown origin) expressed in Komagataella pastoris GS115 assessed as thermal stabilization by mesuring melting temperature by nanoDSF analysis
[2] = Cytotoxicity against african green monkey Vero 76 cells assessed as reduction in cell viability incubated for 48 hrs by neutral red uptake assay; format: toxicity, cell-based; conditions: chlorocebus sabaeus
SARS-CoV-2 [3] = test: Antiviral activity against SARS CoV-2 USA-WA1/2020 infected in african green monkey Vero 76 cells assessed as virus-induced cytopathic effect incubated for 5 days by neutral red uptake assay; format: functional, organism-based; conditions: Severe acute respiratory syndrome coronavirus 2, USA-WA1/2020, Vero 76, 120 h
SARS-CoV-2 [4] = format: functional, Severe acute respiratory syndrome coronavirus 2, Omicron, Vero; conditions: dose 100 nM; time 24 hrs

Sequence of Procathepsin L (Homo sapiens) (P07711 114-333 limits assumed): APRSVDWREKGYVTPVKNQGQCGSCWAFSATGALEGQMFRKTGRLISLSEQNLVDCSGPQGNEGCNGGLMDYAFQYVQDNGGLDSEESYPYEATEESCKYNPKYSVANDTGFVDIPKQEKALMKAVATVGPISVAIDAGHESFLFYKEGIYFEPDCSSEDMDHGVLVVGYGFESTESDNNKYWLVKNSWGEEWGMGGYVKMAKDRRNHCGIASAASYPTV

Compound	ΔTm [1] [°C]	CC50 at 48 h [2] [µM]	EC50 (SARS-CoV-2 [3]) [µM]	Activity (SARS-CoV-2 [4]) [%]
CN(C)C(=O)C(Cc1ccccc1)NC(=O)[C@H]1O[C@@H]1C(=O)NCCc1ccccn1 (relative stereo)	12			
CCCC(NC(=O)C(CC(C)C)NC(=O)OCc1ccccc1)C(=O)C(=O)NCc1ccccn1 (centres undefined)		> 50	< 1	50
